Here are results for 28 molecules from patent US8741897B2, “Glucocorticoid mimetics, methods of making them, pharmaceutical compositions and uses thereof” (Boehringer Ingelheim Pharmaceuticals Inc., priority 2003, dated 2014).

This assay concerns glucocorticoid receptor function. In words: one or more of the above assays (GR binding and glucocorticoid receptor cell assays: aromatase, IL-6, TAT, MMTV-Luc, IL-8, ICAM-Luc). The following applies: assay not specified per compound. It is filed as cell-based.

SMILES strings stand for the structures.

Regarding `CC(C)(CC(O)(Cc1cc2cc(-c3ccccc3)nnc2[nH]1)C(F)(F)F)c1cc(Cl)cc2c1OCC2` (stereo not shown) [4-(5-Chloro-2,3-dihydrobenzofuran-7-yl)-1,1,1-trifluoro-4-methyl-2-(3-phenyl-7H-pyrrolo[2,3-c]pyridazin-6-ylmethyl)pentan-2-ol], the “activity as agonists of the glucocorticoid receptor function in one or more of the above assays” value (“activity as agonists” for short) is “potent agonists”.

`CC(C)(CC(O)(Cc1cc2nc(CN3CCOCC3)ccc2[nH]1)C(F)(F)F)c1cc(Cl)cc2c1OCC2` (stereo not shown) [4-(5-Chloro-2,3-dihydrobenzofuran-7-yl)-1,1,1-trifluoro-4-methyl-2-(5-morpholin-4-ylmethyl-1H-pyrrolo[3,2-b]pyridin-2-ylmethyl)pentan-2-ol]: the “activity as agonists” value is given as “potent agonists”.

`CC(C)(CC(O)(Cc1cc2cc(-c3ccccn3)ccc2[nH]1)C(F)(F)F)c1cc(Cl)cc2c1OCC2` (stereo not shown) [4-(5-Chloro-2,3-dihydrobenzofuran-7-yl)-1,1,1-trifluoro-4-methyl-2-(5-pyridin-2-yl-1H-indol-2-ylmethyl)pentan-2-ol]: the “activity as agonists” value is listed as “potent agonists”.

In the case of `CN1C=CC2=CC(CC(O)(CC(C)(C)c3cc(Cl)cc4c3OCC4)C(F)(F)F)NC2=C1` (stereo not shown) [4-(5-Chloro-2,3-dihydrobenzofuran-7-yl)-1,1,1-trifluoro-4-methyl-2-(6-methyl-1H-pyrrolo[2,3-c]pyridin-2-ylmethyl)pentan-2-ol], the “activity as agonists” value is recorded as “potent agonists”.

On to `CC(C)(CC(O)(Cc1cc2cnccc2[nH]1)C(F)F)c1cc(Cl)cc2c1OCC2` (stereo not shown) [4-(5-Chloro-2,3-dihydrobenzofuran-7-yl)-1,1-difluoro-4-methyl-2-(1H-pyrrolo[3,2-c]pyridin-2-ylmethyl)pentan-2-ol], for which the “activity as agonists” value is given as “agonists”.

Take `Cc1cc2[nH]c(CC(O)(CC(C)(C)c3cc(Cl)cc4c3OCC4)C(F)F)cc2cn1` (stereo not shown) [4-(5-Chloro-2,3-dihydrobenzofuran-7-yl)-1,1-difluoro-4-methyl-2-(6-methyl-1H-pyrrolo[3,2-c]pyridin-2-ylmethyl)pentan-2-ol]: the “activity as agonists” value is “agonists”.

Turning to `CC(C)(CC(O)(Cn1ccc2ncccc21)C(F)F)c1cc(Cl)cc2c1OCC2` (stereo not shown) [4-(5-Chloro-2,3-dihydrobenzofuran-7-yl)-1,1-difluoro-4-methyl-2-pyrrolo[3,2-b]pyridin-1-ylmethylpentan-2-ol], the “activity as agonists” value is “agonists”.

Turning to `CC(C)(CC(O)(Cc1cc2nc(Cl)ncc2[nH]1)C(F)(F)F)c1cc(Cl)cc2c1OCC2` (stereo not shown) [4-(5-Chloro-2,3-dihydrobenzofuran-7-yl)-2-(2-chloro-5H-pyrrolo[3,2-d]pyrimidin-6-ylmethyl)-1,1,1-trifluoro-4-methylpentan-2-ol], the “activity as agonists” value is listed as “potent agonists”.

Consider `CC(C)(CC(O)(Cc1cc2cc(Cl)ncc2[nH]1)C(F)(F)F)c1cc(Cl)cc2c1OCC2` (stereo not shown) [4-(5-Chloro-2,3-dihydrobenzofuran-7-yl)-2-(5-chloro-1H-pyrrolo[2,3-c]pyridin-2-ylmethyl)-1,1,1-trifluoro-4-methylpentan-2-ol], for which the “activity as agonists” value is “potent agonists”.

Consider `CC(C)(CC(O)(Cc1cc2ccncc2[nH]1)C1CC1)c1cc(Cl)cc2c1OCC2` (stereo not shown) [4-(5-Chloro-2,3-dihydrobenzofuran-7-yl)-2-cyclopropyl-4-methyl-1-(1H-pyrrolo[2,3-c]pyridin-2-yl)pentan-2-ol], for which the “activity as agonists” value is listed as “agonists”.

For the molecule `CC(C)(CC(O)(Cc1cc2cnccc2[nH]1)C1CC1)c1cc(Cl)cc2c1OCC2` (stereo not shown) [4-(5-Chloro-2,3-dihydrobenzofuran-7-yl)-2-cyclopropyl-4-methyl-1-(1H-pyrrolo[3,2-c]pyridin-2-yl)pentan-2-ol], the “activity as agonists” value is reported as “agonists”.

As for `CC(C)(CC(O)(Cc1cc2cc(Cl)ncc2[nH]1)C(F)(F)F)c1cc(Br)ccc1O` (stereo not shown) [4-Bromo-2-[3-(5-chloro-1H-pyrrolo[2,3-c]pyridin-2-ylmethyl)-4,4,4-trifluoro-3-hydroxy-1,1-dimethylbutyl]phenol], the “activity as agonists” value was “potent agonists”.

Regarding `CC(C)(CC(O)(Cc1cc2ccncc2[nH]1)C(F)(F)F)c1cc(Br)ccc1O` (stereo not shown) [4-Bromo-2-[4,4,4-trifluoro-3-hydroxy-1,1-dimethyl-3-(1H-pyrrolo[2,3-c]pyridin-2-ylmethyl)butyl]phenol], the “activity as agonists” value was “potent agonists”.

With `CC(C)(CC(O)(Cc1cc2nc(CN3CCOCC3)ccc2[nH]1)C(F)(F)F)c1cc(Cl)ccc1O` (stereo not shown) [4-Chloro-2-[4,4,4-trifluoro-3-hydroxy-1,1-dimethyl-3-(5-morpholin-4-ylmethyl-1H-pyrrolo[3,2-b]pyridin-2-ylmethyl)butyl]phenol], the “activity as agonists” value is reported as “potent agonists”.

Regarding `CC(C)(CC(O)(Cc1cc2nc(-c3ccccc3)ncc2[nH]1)C(F)(F)F)c1cc(F)ccc1O` (stereo not shown) [4-Fluoro-2-[4,4,4-trifluoro-3-hydroxy-1,1-dimethyl-3-(2-phenyl-5H-pyrrolo[3,2-d]pyrimidin-6-ylmethyl)butyl]phenol], the “activity as agonists” value is recorded as “potent agonists”.

Turning to `CC(C)(CC(O)(Cc1cc2nc(N3CCCC3)ncc2[nH]1)C(F)(F)F)c1cc(F)ccc1O` (stereo not shown) [4-Fluoro-2-[4,4,4-trifluoro-3-hydroxy-1,1-dimethyl-3-(2-pyrrolidin-1-yl-5H-pyrrolo[3,2-d]pyrimidin-6-ylmethyl)butyl]phenol], the “activity as agonists” value is “potent agonists”.

`CC(C)(CC(O)(Cc1cc2nnccc2[nH]1)C(F)(F)F)c1cc(F)ccc1O` (stereo not shown) [4-Fluoro-2-[4,4,4-trifluoro-3-hydroxy-1,1-dimethyl-3-(5H-pyrrolo[3,2-c]pyridazin-6-ylmethyl)butyl]phenol]: the “activity as agonists” value is recorded as “potent agonists”.

Consider `CC(C)(CC(O)(Cc1cc2ncncc2[nH]1)C(F)(F)F)c1cc(F)ccc1O` (stereo not shown) [4-Fluoro-2-[4,4,4-trifluoro-3-hydroxy-1,1-dimethyl-3-(5H-pyrrolo[3,2-d]pyrimidin-6-ylmethyl)butyl]phenol], for which the “activity as agonists” value is “potent agonists”.

Consider `CC(C)(CC(O)(Cc1cc2cnccc2[nH]1)C(F)(F)F)c1cc(-c2cccnc2)ccc1O` (stereo not shown) [4-Pyridin-3-yl-2-[4,4,4-trifluoro-3-hydroxy-1,1-dimethyl-3-(1H-pyrrolo[3,2-c]pyridin-2-ylmethyl)butyl]phenol], for which the “activity as agonists” value is “potent agonists”.

As to `Cc1c(CC(O)(CC(C)(C)c2cc(-c3cccnc3)ccc2O)C(F)(F)F)[nH]c2cnccc12` (stereo not shown) [4-Pyridin-3-yl-2-[4,4,4-trifluoro-3-hydroxy-1,1-dimethyl-3-(3-methyl-1H-pyrrolo[2,3-c]pyridin-2-ylmethyl)butyl]phenol], the “activity as agonists” value was “potent agonists”.

Turning to `Cc1nccc2[nH]c(CC(O)(CC(C)(C)c3cc(-c4cccnc4)ccc3O)C(F)(F)F)cc12` (stereo not shown) [4-Pyridin-3-yl-2-[4,4,4-trifluoro-3-hydroxy-1,1-dimethyl-3-(4-methyl-1H-pyrrolo[3,2-c]pyridin-2-ylmethyl)butyl]phenol], the “activity as agonists” value is on record as “potent agonists”.

As for `CC(C)(CC(O)(Cc1cc2cc(Oc3ccccc3)ncc2[nH]1)C(F)(F)F)c1cc(-c2cccnc2)ccc1O` (stereo not shown) [4-Pyridin-3-yl-2-[4,4,4-trifluoro-3-hydroxy-1,1-dimethyl-3-(5-phenoxy-1H-pyrrolo[2,3-c]pyridin-2-ylmethyl)butyl]phenol], the “activity as agonists” value is recorded as “potent agonists”.

In the case of `CC(C)(CC(O)(Cc1cc2ccncc2[nH]1)C(F)(F)F)c1cc(-c2ccsc2)ccc1O` (stereo not shown) [4-Thiophen-3-yl-2-[4,4,4-trifluoro-3-hydroxy-1,1-dimethyl-3-(1H-pyrrolo[2,3-c]pyridin-2-ylmethyl)butyl]phenol], the “activity as agonists” value is listed as “potent agonists”.

Turning to `Cc1nccc2[nH]c(CC(O)(CC(C)(C)c3cc(-c4ccsc4)ccc3O)C(F)(F)F)cc12` (stereo not shown) [4-Thiophen-3-yl-2-[4,4,4-trifluoro-3-hydroxy-1,1-dimethyl-3-(4-methyl-1H-pyrrolo[3,2-c]pyridin-2-ylmethyl)butyl]phenol], the “activity as agonists” value was “potent agonists”.

For `CC(C)(CC(O)(Cc1cc2cc(N3CCOCC3)ncc2[nH]1)C(F)(F)F)c1cc(-c2ccccc2C#N)ccc1O` (stereo not shown) [4′-Hydroxy-3′-[4,4,4-trifluoro-3-hydroxy-1,1-dimethyl-3-(5-morpholin-4-yl-1H-pyrrolo[2,3-c]pyridin-2-ylmethyl)butyl]biphenyl-2-carbonitrile], the “activity as agonists” value is reported as “potent agonists”.

Consider `COc1ccc(-c2cccc(C#N)c2)cc1C(C)(C)CC(O)(Cc1cc2ccncc2[nH]1)C(F)(F)F` (stereo not shown) [4′-Methoxy-3′-[4,4,4-trifluoro-3-hydroxy-1,1-dimethyl-3-(1H-pyrrolo[2,3-c]pyridin-2-ylmethyl)butyl]biphenyl-3-carbonitrile], for which the “activity as agonists” value was “potent agonists”.

Take `COc1ccc(-c2ccccc2C#N)cc1C(C)(C)CC(O)(Cc1cc2c(C)cncc2[nH]1)C(F)(F)F` (stereo not shown) [4′-Methoxy-3′-[4,4,4-trifluoro-3-hydroxy-1,1-dimethyl-3-(4-methyl-1H-pyrrolo[2,3-c]pyridin-2-ylmethyl)butyl]biphenyl-2-carbonitrile]: the “activity as agonists” value is given as “potent agonists”.

`COc1ccc(-c2ccccc2C#N)cc1C(C)(C)CC(O)(Cc1cc2cc(N3CCOCC3)ncc2[nH]1)C(F)(F)F` (stereo not shown) [4′-Methoxy-3′-[4,4,4-trifluoro-3-hydroxy-1,1-dimethyl-3-(5-morpholin-4-yl-1 H-pyrrolo[2,3-c]pyridin-2-ylmethyl)butyl]biphenyl-2-carbonitrile]: the “activity as agonists” value is on record as “potent agonists”.
